Assays:
Assay in all cases: relative viability (nuclei count vs DMSO), 5 days (fraction); higher = more cells survive
MLN4924 + Lapatinib = compound: NS(=O)(=O)OC[C@@H]1C[C@@H](n2ccc3c(N[C@H]4CCc5ccccc54)ncnc32)C[C@@H]1O [MLN4924] + CS(=O)(=O)CCNCc1ccc(-c2ccc3ncnc(Nc4ccc(OCc5cccc(F)c5)c(Cl)c4)c3c2)o1 [Lapatinib] (partner 2 µM)
Outline: (§1)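 A single step with final 0.05% Triton X-100, 1% formaldehyde and 1 ug/ml Hoechst fixed the cells and stained nuclei 5 days after treatment. Lung cancer cell lines in 1536-well plates had been treated by pin tool the day after seeding with one drug alone or a fixed anchor-drug dose plus five library-drug doses (not always all listed) in √10 steps, and nuclei were counted on 4× images. Relative viability is the ratio of nuclei in treated wells to nuclei in vehicle wells, taken as the median of duplicate plates.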

MLN4924 + Bortezomib = compound: NS(=O)(=O)OC[C@@H]1C[C@@H](n2ccc3c(N[C@H]4CCc5ccccc54)ncnc32)C[C@@H]1O [MLN4924] + CC(C)C[C@H](NC(=O)[C@H](Cc1ccccc1)NC(=O)c1cnccn1)B(O)O [Bortezomib] (partner 0.002 µM)
Outline: as §1

GSK126 + Pemetrexed = compound: CC[C@H](C)N1C=C(C2=C(C=C(C=C21)C3=CN=C(C=C3)N4CCNCC4)C(=O)NCC5=C(C=C(NC5=O)C)C)C [GSK126] + Nc1nc2[nH]cc(CCc3ccc(C(=O)N[C@@H](CCC(=O)O)C(=O)O)cc3)c2c(=O)[nH]1 [Pemetrexed] (partner 0.2 µM)
Outline: as §1

MLN4924 + Tozasertib = compound: NS(=O)(=O)OC[C@@H]1C[C@@H](n2ccc3c(N[C@H]4CCc5ccccc54)ncnc32)C[C@@H]1O [MLN4924] + Cc1cc(Nc2cc(N3CCN(C)CC3)nc(Sc3ccc(NC(=O)C4CC4)cc3)n2)n[nH]1 [Tozasertib] (partner 0.1 µM)
Outline: as §1

Cell Line	relative viability (MLN4924 + Lapatinib; first compound 0.04 µM)	relative viability (MLN4924 + Lapatinib; first compound 0.1265 µM)	relative viability (MLN4924 + Lapatinib; first compound 0.4 µM)	relative viability (MLN4924 + Lapatinib; first compound 1.265 µM)	relative viability (MLN4924 + Lapatinib; first compound 4 µM)	relative viability (MLN4924 + Bortezomib; first compound 0.04 µM)	relative viability (MLN4924 + Bortezomib; first compound 0.1265 µM)	relative viability (MLN4924 + Bortezomib; first compound 0.4 µM)	relative viability (MLN4924 + Bortezomib; first compound 1.265 µM)	relative viability (MLN4924 + Bortezomib; first compound 4 µM)	relative viability (GSK126 + Pemetrexed; first compound 0.08 µM)	relative viability (GSK126 + Pemetrexed; first compound 0.253 µM)	relative viability (GSK126 + Pemetrexed; first compound 0.8 µM)	relative viability (GSK126 + Pemetrexed; first compound 2.53 µM)	relative viability (GSK126 + Pemetrexed; first compound 8 µM)	relative viability (MLN4924 + Tozasertib; first compound 0.04 µM)	relative viability (MLN4924 + Tozasertib; first compound 0.1265 µM)	relative viability (MLN4924 + Tozasertib; first compound 0.4 µM)	relative viability (MLN4924 + Tozasertib; first compound 1.265 µM)	relative viability (MLN4924 + Tozasertib; first compound 4 µM)
PC-14	0.382	0.655	0.395	0.157	0.136	0.857	0.823	0.369	0.172	0.101	0.131	0.133	0.135	0.155	0.148	0.592	0.569	0.605	0.177	0.0608
NCI-H661	0.538	0.632	0.499	0.228	0.28	0.872	0.904	0.637	0.29	0.254	0.982	0.897	0.991	0.914	0.967	0.343	0.329	0.359	0.338	0.375
NCI-H1734	1.02	0.925	0.19	0.118	0.134	0.817	0.602	0.251	0.134	0.118	0.406	0.411	0.463	0.448	0.461	0.261	0.267	0.154	0.12	0.0994
EMC-BAC-2	0.468	0.913	0.303	0.217	0.178	0.96	0.842	0.274	0.162	0.155	0.421	0.46	0.46	0.419	0.376	0.254	0.254	0.208	0.212	0.239
EKVX	0.208	0.311	0.19	0.119	0.102	0.806	0.711	0.475	0.236	0.135	0.403	0.373	0.413	0.374	0.31	0.408	0.457	0.299	0.155	0.127
NCI-H596	1.1	1.05	0.438	0.397	0.38	1.08	1.02	0.709	0.885	0.974	0.496	0.464	0.441	0.45	0.472	0.819	0.987		0.514	0.528
LOU-NH91	0.814	0.926	0.904	0.533	0.414	0.418	0.484	0.38	0.393	0.329	0.399	0.35	0.376	0.362	0.423	0.641	0.689	0.502	0.336	0.342
NCI-H1437	0.79	0.656	0.268	0.119	0.1	0.437	0.448	0.443	0.148	0.115	0.298	0.325	0.306	0.305	0.353	0.298	0.254	0.176	0.195	0.133
H3255	0.253	0.38	0.201	0.185	0.208	0.559	0.707	0.262	0.2	0.32	0.596	0.548	0.568	0.898	0.58	0.671	0.374	0.339	0.236	0.286
NCI-H1666	0.382	0.307	0.305	0.159	0.211	0.542	0.491	0.348	0.183	0.27	0.872	0.936	0.766	0.796	0.807	0.56	0.635	0.447	0.266	0.27
NCI-H2228		0.638	0.271	0.13	0.161		1.03	0.309	0.121	0.166	0.374	0.312	0.354	0.312	0.392	0.259	0.195	0.122	0.144	0.123
HCC-78	0.871	0.515	0.683	0.142	0.215	0.568	0.397	0.51	0.241	0.229	0.889	0.866	0.888	0.891	0.871	0.564	0.458	0.453	0.172	0.141
CAL-12T		0.603	0.354	0.198	0.243		0.971	0.659	0.369	0.22	1.31	1.37	1.09	1.13	1.43	0.325	0.365	0.262	0.237	0.167
SK-LU-1	0.703	0.491	0.299	0.19	0.181	0.856	0.866	0.293	0.187	0.28	1.06	0.938	0.956	0.953	1.06	0.356	0.295	0.171	0.0898	0.111
LU99A	0.779	0.339	0.294	0.145	0.151	0.873	0.316	0.407	0.159	0.138	0.181	0.165	0.185	0.179	0.155	0.251	0.244	0.224	0.178	0.165
RERF-LC-KJ	0.746	0.555	0.227	0.191	0.221	0.874	0.828	0.244	0.24	0.28	0.462	0.465	0.443	0.462	0.461	0.471	0.366	0.193	0.202	0.201
NCI-H2126	0.724	0.762	0.406	0.241	0.261	1.17	1.16	0.907	0.392	0.348	0.71	0.725	0.702	0.686	0.645	0.821	0.813	0.514	0.339	0.25
LXF-289	0.804	0.682	0.416	0.184	0.15	0.928	0.707	0.516	0.269	0.162	0.894	0.945	0.933	0.908	0.884	0.194	0.162	0.155	0.083	0.0804
BEN	0.671	0.522	0.249	0.145	0.104	0.687	0.51	0.267	0.16	0.122	0.881	0.715	0.832	0.896	0.785	0.411	0.308	0.35	0.228	0.222
NCI-H1993	0.732	0.666	0.581	0.547	0.516	0.856	0.72	0.664	0.383	0.474	0.583	0.555	0.628	0.586	0.687	0.489	0.478	0.51	0.449	0.498
SW 1573	0.781	1.1	0.565	0.13	0.114	1.03	0.932	0.249	0.0788	0.0726	0.945	0.981	0.934	1.08	0.877	0.235	0.207	0.0978	0.0941	0.0688
NCI-H520	0.594	0.437	0.323	0.17	0.162	0.424	0.272	0.341	0.131	0.141	0.781	0.792	0.743	0.705	0.733	0.461	0.513	0.425	0.204	0.25
LCLC-97TM1	0.853	0.798	0.189	0.11	0.137	0.403	0.46	0.107	0.046	0.0727	0.19	0.193	0.171	0.179	0.194	0.222	0.158	0.172	0.121	0.112
HCC-827	0.242	0.283	0.398	0.182	0.166	1.05	0.966	0.791	0.474	0.375	0.264	0.285	0.249	0.27	0.287	0.415	0.347	0.408	0.165	0.167
NCI-H1975	1.13	1.02	0.308	0.152	0.169	0.526	0.452	0.26	0.169	0.149	0.276	0.306	0.304	0.305	0.277	0.675	0.836	0.796	0.451	0.241
